{"source": "patent US20030049249A1", "about": "(priority 2001, published 2003)", "key": {"[1]": {"system": "N2a/Bos2 cells exposed to 0.1% scrapie-infected brain homogenate (RML prions)", "type": "cell-based, mouse"}, "[2]": {"system": "chronically scrapie-infected N2a/Bos2 cells", "type": "cell-based, mouse"}}, "data": [{"substance": "phosphatidylinositol-specific phospholipase C [PIPLC]", "values": [{"measurement": "effect on appearance of PrPSc", "setting": "[1]; PIPLC 0.25, 0.5, 1 and 2 units/ml before and/or during exposure of a susceptible cell to prions", "result": "prevents appearance of PrPSc"}, {"measurement": "concentration that sufficed to prevent appearance of PrPSc", "setting": "[1]; added 2 h before and during 3-day exposure to 0.1% scrapie-infected brain homogenate, cell blot after 14 days in absence of PIPLC", "result": 0.25, "unit": "units/ml"}, {"measurement": "effect on PrPSc in chronically infected cells", "setting": "[2]", "result": "causes rapid loss of PrPSc"}]}]}
